Measurements: patent US10071133B2, “Method for destroying exosomes, kit for destroying exosomes, and method for isolating exosomes derived from normal cells” (priority 2015, dated 2018)

Assays:
[1] = test system: exosomes derived from human breast cancer cells (MM231-luc-D3H2LN) in human peripheral blood sample; details: […]10^10 particles/mL exosomes, 100 μM magainin 2 or 8% phenol, 25° C., 24 hours
Experimental: The exosome fraction A prepared from the cell line MM231-luc-D3H2LN derived from human breast cancer cells was added to a peripheral blood sample collected from a healthy person with no cancer (hereinafter will be also referred to as human peripheral blood sample) so as to become an exosome concentration of an actual cancer patient, and thereby an artificial sample of a human peripheral blood of the cancer patient was produced. The human peripheral blood sample was obtained after procurement of the patient informed consent according to the Declaration of Helsinki, similarly to the method described in Japanese Unexamined patent publication No. 2013-198483, for example. Blood was drawn using a blood collection tube containing an anticoagulant.
Using a part of the incubated solution, the exosomes were purified with Exo-Flow32 CD9 IP Kit (manufactured by SBI), and then the number of exosomes in the solution was measured using the nanoparticle analyzer (NanoSight LM10; manufactured by NanoSight, Ltd.). […] In addition, a part of the incubated solution was subjected to the serum component protein electrophoresis.

[2] = test system: exosomes derived from cancer cells; assay: Preliminary examination of destructive ability of anticancer peptides against exosomes derived from cancer cells; assay type: biochemical
Excerpt: Specifically, the present inventors have come to realize the following knowledge.

[3] = test system: exosome fraction B derived from human breast cancer cells (MDA-MB-231-luc-D3H2LN); assay: Extraction of microRNA (miR-21) from exosomes derived from human breast cancer cells, real-time PCR; assay type: biochemical; details: 100 μM peptide, 1×10^11 particles/mL exosomes, 0.4 U/μL RNase inhibitor, 37° C., 24 hours; without peptide 8×10^−14M
Experimental: (§1) A cell suspension of cell line MDA-MB-231-luc-D3H2LN derived from human breast cancer (=MM231-luc-D3H2LN, provided by the National Cancer Center Research Institute) was seeded in a dish containing RPMI 1640 medium (manufactured by Thermo Fisher Scientific Inc.) containing 10% fetal bovine serum. Subsequently, the cell line was grown at 37° C. under the condition that CO2 concentration was set to 5 volume % using a CO2 incubator, and then the medium was replaced with Advanced RPMI 1640 medium (manufactured by Thermo Fisher Scientific Inc.), followed by culturing for 48 hours, and therefore the culture solution containing exosomes was obtained. This culture solution was centrifuged at 2,000 G for 10 minutes to remove the precipitate, followed by centrifugation at 110,000 G for 70 minutes to precipitate the exosomes, and therefore an exosome fraction B was recovered. The recovered exosome fraction B was suspended in a phosphate buffered saline (PBS) and then stored at 4° C. Storage samples were lightly suspended with a vortex mixer (vibration mixer) before use.
(§2) MicroRNA (miR-21 or miR-16) in the reaction solution was subjected to reverse transcription PCR using reverse transcription primers (manufactured by Thermo Fisher Scientific Inc., Taqman microRNA Assays, RT primers, and hsa-mir-21 or hsa-mir-16) and a reverse transcriptase (manufactured by Thermo Fisher Scientific Inc., Taqman microRNA RT kit).
(§3) The reverse transcription PCR solution obtained by the above described method was processed and by comparing the number of cycles on a calibration curve of microRNA using Taqman Assay primer (manufactured by Thermo Fisher Scientific Inc., Taqman microRNA Assays, Taqman Assay primer, and hsa-mir-21 or hsa-mir-16) and Real-Time PCR Master Mixes (manufactured by Thermo Fisher Scientific Inc., TaqMan Universal PCR Master Mix II, w/UNG) with StepOnePlus Real-Time PCR System, MiR-21 or miR-16 was quantified. The calibration curve of microRNA was created using synthetic miR-21 (manufactured by Sigma-Aldrich Co. LLC.) or synthetic miR-16 (manufactured by Sigma-Aldrich Co. LLC.).
(§4) 10 μL of the exosome fraction was prepared such that PBS contains 1×10^11 particles/mL of the exosome fraction B derived from human breast cancer cells, various antimicrobial peptides shown in the following Table 2 adjusted to 100 μM, and 0.4 U/μL of RNase inhibitor (manufactured by Toyobo Co., Ltd.), followed by incubation by being left to stand at 37° C. for 24 hours.
MicroRNA eluted into the solution was purified and recovered from the incubated solution of Example 10 above and Comparative Example 6 above by the following method.
First, 160 μL of PBS was added to the reaction solution, and then the solution was added to a centrifugal filter (manufactured by Millipore Corporation, Amicon Ultra 0.5 mL, 100K filter) and centrifuged at 14,000 G for 2 minutes. Subsequently, 100 μL of the centrifuged filtrate was recovered and introduced into a 1.5 mL tube. Next, 350 μL of RLT buffer (manufactured by QIAGEN, attached with RNeasy mini kit) and 675 μL of ethanol were added and mixed in the 1.5 mL tube. The obtained mixture was separated into two parts, and each of the separates was added onto a spin column (manufactured by QIAGEN, attached with RNeasy mini kit) followed by centrifugation at 8,000 G for 15 seconds, and the entire amount of the mixture was passed through the spin column. Thereafter, 500 μL of RPE buffer (manufactured by QIAGEN, attached with RNeasy mini kit) was added thereto and centrifuged at 8,000 G for 15 seconds. Furthermore, 500 μL of the RPE buffer was added to the spin column once more and centrifuged at 8,000 G for 15 seconds. Thereafter, the spin column was centrifuged at 14,000 G for 1 minute to remove the residual RPE buffer. Next, 30 μL of RNase free water (manufactured by QIAGEN, attached with RNeasy mini kit) was added to the spin column, left for 1 minute, and then centrifuged at 14,000 G for 1 minute, and the eluate obtained thereby was recovered. […]

[4] = test system: exosome derived from human prostate cancer cells (PC3ML); assay: Extraction of microRNA (miR-21) from exosome derived from prostate cancer cells, real-time PCR; assay type: biochemical; details: 100 μM peptide, 1×10^11 particles/mL PC3ML exosomes, 0.4 U/μL RNase inhibitor, 37° C., 24 hours; without peptide 3×10^−14M
Experimental: A cell suspension of cell line PC3ML derived from human prostate cancer cells (provided by the National Cancer Center Research Institute) was seeded in a dish containing RPMI 1640 medium (manufactured by Thermo Fisher Scientific Inc.) containing 10% fetal bovine serum. Subsequently, the cell line was grown at 37° C. under the condition that CO2 concentration was set to 5 volume % using a CO2 incubator, and then the medium was replaced with Advanced RPMI 1640 medium (manufactured by Thermo Fisher Scientific Inc.), followed by culturing for 48 hours, and the culture solution containing exosomes was obtained. This culture solution was centrifuged at 2,000 G for 10 minutes to remove the precipitate, followed by centrifugation at 110,000 G for 70 minutes to precipitate the exosomes, and therefore an exosome fraction was recovered. The recovered exosome fraction was suspended in a phosphate buffered saline (PBS) and then stored at 4° C. Storage samples were lightly suspended with a vortex mixer (vibration mixer) before use. […]
as §3, with “The calibration curve of microRNA was created using synthetic miR-21 (manufactured by Sigma-Aldrich Co. LLC.) or synthetic miR-16 (manufactured by Sigma-Aldrich Co. LLC.).” left out
The amount of microRNA (miR-21) contained in the recovered eluate was quantified by the above described real-time PCR method. […] In addition, the destructive activity of the antimicrobial peptide used was evaluated on the basis of the following criteria based on the quantitative result of the concentration of microRNA (miR-21) performed by the real-time PCR method. […]

[5] = test system: exosome fraction A prepared from the cell line MM231-luc-D3H2LN derived from human breast cancer cells; assay: Destruction of exosomes in PBS, number of exosomes by nanoparticle analyzer (NanoSight LM10); assay type: biochemical; details: 50 μM peptide, 1.36×10^10 particles/mL exosomes in PBS, 25° C., 48 hours
Excerpt: Storage samples were lightly suspended with a vortex mixer (vibration mixer) before use.

[6] = test system: exosome fraction B derived from human breast cancer cells versus exosome fraction derived from human mammary gland cells (MCF-10A, normal cells); assay: Selectivity: miR-16 ratio, breast cancer exosomes versus mammary gland normal cell exosomes (Formula 1); assay type: biochemical; details: for mir-16 ratio: Formula 1, cancer/normal (MCF-10A), 100 μM peptide, 37° C., 24 hours; for Selectivity: from miR-16 ratio versus Comparative Example 8, breast cancer vs MCF-10A exosomes
Experimental: as §1
A cell suspension of cell line MCF 10A derived from human mammary epithelial cells (provided by the National Cancer Center Research Institute) was seeded in a dish containing Mammary Epithelium Cell Basal Medium (manufactured by Lonza). Subsequently, the cell line was grown at 37° C. under the condition that CO2 concentration was set to 5 volume % using a CO2 incubator, and then the medium was replaced with a fresh medium, followed by culturing for 48 hours, and the culture solution containing exosomes was obtained. This culture solution was centrifuged at 2,000 G for 10 minutes to remove the precipitate, followed by centrifugation at 110,000 G for 70 minutes to precipitate the exosomes, and an exosome fraction was recovered. The recovered exosome fraction was suspended in a phosphate buffered saline (PBS) and then stored at 4° C. Storage samples were lightly suspended with a vortex mixer (vibration mixer) before use.
as §2, §3
as §4, with “Table 4” for “Table 2”
Thereafter, the eluted MicroRNA (miR-16) was purified and recovered from the incubated solution by the same method as the above described method for extraction from the incubated solution of Examples 10 and 11 above and Comparative Examples 6 and 7 above. […]

Molecule: Oc1ccccc1 [Comparative Example 2, phenol, reference compound]
- exosome amount compared to Comparative Example 3 (no additive) [1]: decreased

Molecule: A6K: amino acid sequence AAAAAAK (Ac-AAAAAAK-NH2)
- destructive ability against the exosomes derived from cancer cells [2]: no or a low level
- Destructive activity (concentration of microRNA miR-21 in eluate) [3]: D (the concentration of microRNA is less than 10×10^−14M)

Molecule: Hepcidin TH2-3
- destructive ability against the exosomes derived from cancer cells [2]: no or a low level
- Destructive activity (concentration of microRNA miR-21 in eluate) [3]: D (the concentration of microRNA is less than 10×10^−14M)

Molecule: K6L9 (LKLLKKLLKKLLKLL)
- Destructive activity (concentration of microRNA miR-21 in eluate) [3]: B (the concentration of microRNA is 10×10^−14M to 50×10^−14M)
- Destructive activity (concentration of microRNA miR-21 in eluate) [4]: A (the concentration of microRNA is 10×10^−14M or more)

Molecule: LL-37
- number of exosomes in the solution [5]: 1.09×10^9 particles/mL
- mir-16 ratio [6]: 18
- Selectivity [6]: B (evaluated as “B” in a case where the calculated miR-16 value was higher than the miR-16 ratio of Comparative Example 8)
- Destructive activity (concentration of microRNA miR-21 in eluate) [3]: A (the concentration of microRNA is 50×10^−14M or more)

Molecule: Lactoferricin [Example 4]
- number of exosomes in the solution [5]: 7.47×10^9 particles/mL

Molecule: Maximin 1
- mir-16 ratio [6]: 22
- Selectivity [6]: B (evaluated as “B” in a case where the calculated miR-16 value was higher than the miR-16 ratio of Comparative Example 8)
- Destructive activity (concentration of microRNA miR-21 in eluate) [3]: B (the concentration of microRNA is 10×10^−14M to 50×10^−14M)

Molecule: Maximin 4
- mir-16 ratio [6]: 311
- Selectivity [6]: B (evaluated as “B” in a case where the calculated miR-16 value was higher than the miR-16 ratio of Comparative Example 8)
- Destructive activity (concentration of microRNA miR-21 in eluate) [3]: B (the concentration of microRNA is 10×10^−14M to 50×10^−14M)

Molecule: Nisin [Example 3]
- number of exosomes in the solution [5]: 4.51×10^9 particles/mL

Molecule: PR-39 (RRRPRPPYLPRPRPPPFFPPRLPPRIPPGFPPRFPPRFP)
- destructive ability against the exosomes derived from cancer cells [2]: no or a low level
- Destructive activity (concentration of microRNA miR-21 in eluate) [3]: D (the concentration of microRNA is less than 10×10^−14M)

Molecule: Polybia-MPI
- Destructive activity (concentration of microRNA miR-21 in eluate) [3]: B (the concentration of microRNA is 10×10^−14M to 50×10^−14M)
- Destructive activity (concentration of microRNA miR-21 in eluate) [4]: A (the concentration of microRNA is 10×10^−14M or more)

Molecule: mCRAMP (GLLRKGGEKIGEKLKKIGQKIKNFFQKLVPQPEQ)
- mir-16 ratio [6]: 9
- Selectivity [6]: B (evaluated as “B” in a case where the calculated miR-16 value was higher than the miR-16 ratio of Comparative Example 8)
- Destructive activity (concentration of microRNA miR-21 in eluate) [3]: A (the concentration of microRNA is 50×10^−14M or more)
